Source: patent US8067427B2 (AstraZeneca AB, priority 2004, dated 2011)
In brackets after ≈: the same amount, converted by molar mass.

Key:
[1] = Strain rate sensitivity (SRS); type: physicochemical; conditions: percent increase in yield pressure from slow to fast punch velocity
Description: (§1) The mechanical properties of materials such as powders may be described in terms of the following characteristics: • (a) Hardness, or resistance to deformation, which can be measured by an indentation hardness test; • (b) Yield pressure (denoted Py and also known as yield stress), that is the point at which plastic deformation occurs, which can be measured by compaction studies; • (c) Strain Rate Sensitivity (SRS), that is the percent increase in yield pressure from slow to fast punch velocity, which can be measured by compaction studies; and • (d) Modulus of Elasticity, that is the ratio of stress to elongation (strain), which can be measured by numerous methods that are well known to a person skilled in the art of formulation.
Materials can, in general, be classified by the way in which they deform under compressive force, either by brittle fracture or by plastic deformation. The degree of deformation for a brittle material is independent of the rate and duration of the compression event (that is the compression applied), giving a strain rate sensitivity value for such materials of 0% (zero %). […]
The strain rate sensitivity of a material can be calculated using the mean yield pressures (Py) calculated for a material at fast (300 mm s^−1) and slow (0.033 mm s^−1) punch velocities. […]

[2] = Yield pressure test (compaction simulator, Heckel plot); type: physicochemical
Description: as §1
The yield pressure of a material can be determined by compressing it in a compaction simulator using a simple uniaxial saw tooth displacement/time profile and measuring the corresponding forces. The compaction simulator is fitted with 10 mm flat-faced punches and the material is compressed to zero porosity at a specific punch velocity. The force/displacement data generated are manipulated to produce a Heckel plot and the yield pressure is equivalent to the […] of the Heckel plot. This test can be performed at different punch velocities to determine the effect of scale-up on the deformation characteristics of the material. […]

VEGF RTK = conditions: cited from earlier work
tumour models = conditions: range of models, once-daily oral administration; cited from earlier work
physchem = conditions: water, 25 °C

yield pressure [2] [MPa]	solubility (physchem) [µg/mL]	solubility class per British Pharmacopoeia 2001-2002 classification system (Solubility in water)	Compound	strain rate sensitivity [1] [%]	inhibition of VEGF RTK (VEGF RTK)	anti-tumour activity (tumour models)
			O.OC[C@H]1O[C@@H](O[C@H]2[C@H](O)[C@@H](O)C(O)O[C@@H]2CO)[C@H](O)[C@@H](O)[C@H]1O (stereo partly shown) [Lactose monohydrate]	19.4		
22	33 (≈ 69.4 µM)	practically insoluble	COc1cc2c(Nc3ccc(Br)cc3F)ncnc2cc1OCC1CCN(C)CC1 [ZD6474, 4-(4-bromo-2-fluoroanilino)-6-methoxy-7-(1-methylpiperidin-4-ylmethoxy)quinazoline]	197	potent inhibitor	broad-spectrum anti-tumour activity
